Reference: patent US4816447A, “Anti-viral guanine compounds” (priority 1984, dated 1989)
Converted amounts (≈) assume the structure as drawn. Where two headings read alike, the source gives them in different places.

Key:
[1] = system: Herpes simplex virus type 2; experiment: Tube dilution assay, viral cytopathology of HSV-2 in rabbit kidney cell cultures; details: Human alphaherpesvirus 2, in Oryctolagus cuniculus, read-out: Minimum Effective Concentration
Recombinant 6-26 = experiment: Drug sensitivity of HSV-1/HSV-2 intertypic Recombinant 6-26; details: for EC50: read-out: ED50
[2] = system: guanosine monophosphate kinase and extract of HSV1-infected HeLa cells; type: biochemical; details: gmp kinase, 4 h
Experimental: To the rest of the incubation mixtures were now added 0.04 units of guanosine monophosphate kinase and 20 μl of an extract of HSV1-infectedHeLa cells [The cells were infected with the virus at a multiplicity of 10 and harvested 8 hours later; they were suspended in a solution containing 0.35M KH2 PO4, pH 7.5, 0.5 mM dithiothreitol, 0.2% polyoxyethylene(9)octylphenol (Nonidet P-40), 14% glycerol at 50 mg/ml and after 30 minutes at 4° were centrifuged at […]; the supernatant liquid was the crude extract.] Incubation was continued at 30° for 4 more hours, after which samples were analyzed by HPLC and the amount of the triphosphate derivatives of each compound determined by integration of the area under the respective chromatographic peak.

Herpes simplex virus = experiment: Plaque inhibition, Herpes simplex virus on MRC5 cells (Table V); type: cell-based, Herpes simplex virus; MRC5 (human diploid lung) cells
Vaccinia = experiment: microbe, parasite or virus in culture; type: cell-based, vaccinia; MRC5 (human diploid lung) cells; details: for EC50: Orthopoxvirus vaccinia, MRC5, read-out: ED50, concentration required for 50% plaque inhibition
HSV-1 (383R1) = experiment: Protection of mice against intraperitoneal infection with HSV-1 (383R1) (Table IX); type: in vivo, HSV-1; mice; details: for Mean Survival Time (± SD): HSV-1 (383R1), s.c. twice daily, 4 days; for efficacy against HSV-1 (383R1) relative to wild type HSV-1: mouse, in vivo
Experimental: (§1) 1. […] Groups of mice infected intraperitoneally with increasing doses of HSV-1 or HSV-1 (383R1) were treated twice daily subcutaneously for 4 days with either the Cyclic Monophosphate or the compound of Formula II. Mean survival times of treated mice were compared.

[3] = system: Varicella-Zoster virus, strain KMcC; experiment: Plaque inhibition, Varicella Zoster virus on MRC5 cells (Table V); type: cell-based, Varicella-Zoster virus; MRC5 (human diploid lung) cells
HSV-1 PAA ®1 = experiment: microbe, parasite or virus in culture; details: Human alphaherpesvirus 1, read-out: ED50
Recombinant 6-19 = experiment: Drug sensitivity of HSV-1/HSV-2 intertypic Recombinant 6-19; details: for EC50: read-out: ED50
HSV-2 TS6 [4] = experiment: microbe, parasite or virus in culture; details: Human alphaherpesvirus 2, read-out: ED50
[5] = Comparative solubilities in pH 7.2 buffer at 25°; type: physicochemical; details: for solubility: aqueous buffer, pH 7.2 phosphate buffer, 25°
Experimental: Comparative Solubilities in pH 7.2 Buffer at 25°
Solubilities were determined by suspending an excess amount of the compound in approximately 0.15 molar phosphate buffer (pH 7.2) and shaking overnight in a water bath at 25° to give a saturated solution. The concentration of the compound in the filtered solution was calculated on the basis of spectrophotometric measurements, i.e. comparison of the ultraviolet absorbance at the λmax for the saturated solution with the absorbance value observed for a known concentration of the compound.

[6] = system: Herpes simplex virus type 1; experiment: Tube dilution assay, viral cytopathology of HSV-1 in rabbit kidney cell cultures; details: Human alphaherpesvirus 1, in Oryctolagus cuniculus
[7] = system: HSV-1 wild type Strain 17; experiment: Drug sensitivity of HSV-1 wild type Strain 17; details: for EC50: Human alphaherpesvirus 1, read-out: ED50
Recombinant 6-30 = experiment: Drug sensitivity of HSV-1/HSV-2 intertypic Recombinant 6-30; details: for EC50: read-out: ED50
[8] = system: HSV-1 wild type (Schooler); experiment: Protection of mice against intraperitoneal infection with HSV-1 (Table IX); type: in vivo, HSV-1; mice; details: for Mean Survival Time (± SD): HSV-1, s.c. twice daily, 4 days; for protective efficacy over a 10^6 -fold virus challenge range: HSV-1 or HSV-1 (383R1)
Experimental: as §1

HSV-2 TS6 [9] = system: HSV-2 TS6
[10] = system: human cytomegalovirus, strain AD169; experiment: Plaque inhibition, cytomegalovirus on MRC5 cells (Table V); type: cell-based, human cytomegalovirus; MRC5 (human diploid lung) cells
Adeno Type 2 = experiment: Plaque inhibition, Adeno Type 2 on BSC cells (Table V); type: cell-based, Adeno Type 2; BSC (monkey) cells; details: for EC50: Primates, read-out: ED50, concentration required for 50% plaque inhibition, Adeno Type 2, BSC
Experimental: ED50 values developed for the cyclic monophosphate are compared on a weight basis to those established for the compound of Formula II and acyclovir.
Adeno Type 2 was assayed on BSC (monkey) cell cultures.

Recombinant 6-34 = experiment: Drug sensitivity of HSV-1/HSV-2 intertypic Recombinant 6-34; details: for EC50: read-out: ED50
HSV-1 383R1 = type: cell-based, HSV-1 (383R1); NIH 3T3 mouse cells; details: for EC50: Human alphaherpesvirus 1, in Mus musculus
HSV-2 = experiment: Therapeutic efficacy against vaginal HSV-2 infection of mice (Table VII); type: in vivo, HSV-2; mice; details: for Survivors/Total: 0.55 μmoles oral gavage twice daily; for therapeutic effectiveness, treatment initiated up to 72 hours after infection: vaginal HSV-2
Experimental: d. HSV-2 vaginal infection in mice is progressive from local acute infection of the genital area to limb paralysis and eventual death. This is a consistent, reproducible model, but is more virulent and progressive than the human genital disease. Drug efficacy is determined ultimately by extension of animal survival time, and also by the limitation of progression of disease from acute local through paralysis to death. Animals are challenged using in excess of 10 lethal equivalent doses of HSV-2. This model was used to evaluate dosing by oral gavage.

[11] = read-out: Minimum Effective Concentration, Strain Schooler
[12] = read-out: Antiviral Concentration, 50% plaque reduction, HSV-1 383R1, 3T3 TK^- /TK^+HSV cells
[13] = read-out: Antiviral Concentration, 50% plaque reduction, HSV-1 383R1, 3T3 TK^- cells
[14] = MRC5, read-out: ED50, concentration required for 50% plaque inhibition
[15] = Human alphaherpesvirus 3, MRC5, read-out: ED50, concentration required for 50% plaque inhibition
[16] = treatment initiated 0 hrs after infection
[17] = treatment initiated 24 hrs after infection
[18] = treatment initiated 48 hrs after infection
[19] = treatment initiated 72 hrs after infection
[20] = Human betaherpesvirus 5, AD169, MRC5, read-out: ED50, concentration required for 50% plaque inhibition

## Nc1nc2c(ncn2COC(CO)CO)c(=O)[nH]1 [Compound of Formula II, 9-(1,3-Dihydroxy-2-propoxymethyl)guanine]
[1]
  minimal effective concentration: 1 to 3 µg/mL
Recombinant 6-26
  EC50: 0.05 µg/mL
[2]
  converted to the triphosphate: 93%
Herpes simplex virus; read-out: ED50, concentration required for 50% plaque inhibition, Herpes simplex virus, MRC5
  EC50: 0.2 µg/mL
Vaccinia
  EC50: 50 to 100 µg/mL
HSV-1 (383R1)
  Mean Survival Time (± SD): 9.05 (0.80)
  efficacy against HSV-1 (383R1) relative to wild type HSV-1: significantly lower
[3]; Human alphaherpesvirus 3, read-out: ED50, concentration required for 50% plaque inhibition, Varicella Zoster virus, MRC5
  EC50: 3 to 6 µg/mL
HSV-1 PAA ®1
  EC50: 0.1 µg/mL
Recombinant 6-19
  EC50: 0.1 µg/mL
HSV-2 TS6 [4]
  EC50: 15.5 µg/mL
[5]
  solubility: 2800 µg/mL
[6]; read-out: Minimum Effective Concentration, Strain McIntyre
  minimal effective concentration: 3 µg/mL
[6]; read-out: Minimum Effective Concentration, Strain McKrae
  minimal effective concentration: 1 to 3 µg/mL
[6]; read-out: Minimum Effective Concentration, Strain S
  minimal effective concentration: 1 to 3 µg/mL
[6]; [11]
  minimal effective concentration: 1 to 3 µg/mL
[7]
  EC50: 0.34 µg/mL
Recombinant 6-30
  EC50: 0.08 µg/mL
[8]
  Mean Survival Time (± SD): 12.55 (0.88)
  protective efficacy over a 10^6 -fold virus challenge range: no significant difference in protective efficacy
HSV-2 TS6 [9]
  sensitivity of HSV-2 Ts6: resistant
[10]
  more active than acyclovir: approximately 10 fold
[10]; Human betaherpesvirus 5, AD169, read-out: ED50, concentration required for 50% plaque inhibition, Cytomegalovirus, MRC5
  EC50: 0.8 µg/mL
Adeno Type 2
  EC50: 50 µg/mL
Recombinant 6-34
  EC50: 0.07 µg/mL
HSV-1 383R1; [12]
  EC50: 0.06 µg/mL
HSV-1 383R1; [13]
  EC50: 5 µg/mL

## Nc1nc2c(ncn2COC2COP(=O)(O)OC2)c(=O)[nH]1 (stereo not shown) [Cyclic Monophosphate, Potassium 9-(1,3-dihydroxy-2-propoxymethyl)guanine cyclic monophosphate]
Recombinant 6-26
  EC50: 1.1 µg/mL
Herpes simplex virus; [14]
  EC50: 3 to 6 µg/mL
Vaccinia
  EC50: 6 to 12 µg/mL
Vaccinia; vaccinia
  inhibition of DNA virus: inhibitory
HSV-1 (383R1)
  Mean Survival Time (± SD): 13.42 (0.82)
  efficacy against HSV-1 (383R1) relative to wild type HSV-1: equally effective
[3]
  in vitro effectiveness against Varicella Zoster virus relative to acyclovir or compound of Formula II: substantially more effective
  more active than either compound of Formula II or acyclovir: approximately 10 fold
[3]; [15]
  EC50: 0.4 to 0.8 µg/mL
HSV-1 PAA ®1
  EC50: 3.2 µg/mL
Recombinant 6-19
  EC50: 4.7 µg/mL
HSV-2 TS6 [4]
  EC50: 0.4 µg/mL
[5]; qualitative statement
  solubility compared to compound of Formula II and acyclovir: readily soluble
[7]
  EC50: 0.9 µg/mL
Recombinant 6-30
  EC50: 0.3 µg/mL
HSV-2; [16]
  Survivors/Total: 8/10
HSV-2; [17]
  Survivors/Total: 3/10
HSV-2; [18]
  Survivors/Total: 2/10
HSV-2; [19]
  Survivors/Total: 3/10
HSV-2
  therapeutic effectiveness, treatment initiated up to 72 hours after infection: therapeutically effective
[8]
  Mean Survival Time (± SD): 12.65 (0.84)
  protective efficacy over a 10^6 -fold virus challenge range: no significant difference in protective efficacy
HSV-2 TS6 [9]
  sensitivity of HSV-2 Ts6: sensitive
[10]
  more active than acyclovir: approximately 10 fold
  potency relative to compound of Formula II: equipotent
[10]; [20]
  EC50: 0.8 µg/mL
Adeno Type 2
  EC50: 3 µg/mL
Adeno Type 2; adenovirus
  inhibition of DNA virus: inhibitory
Recombinant 6-34
  EC50: 6.3 µg/mL
HSV-1 383R1; HSV-1 (383R1)
  antiviral activity on 3T3 TK^- /TK^+HSV vs 3T3 TK^- cells: equivalent
HSV-1 383R1; [12]
  EC50: 1 µg/mL
HSV-1 383R1; [13]
  EC50: 1 µg/mL

## Nc1nc2c(ncn2COCCO)c(=O)[nH]1 [Acycloguanosine, 9-(2-hydroxyethoxymethyl)guanine, reference compound]
[1]
  minimal effective concentration: 1 to 3 µg/mL
Recombinant 6-26; Recombinant 6-26
  Sensitivity (S) or Resistance (R): S
[2]
  converted to the triphosphate: 31%
Herpes simplex virus; [14]
  EC50: 0.2 to 0.4 µg/mL (≈ 0.888 to 1.78 µM)
Vaccinia
  EC50: > 100 µg/mL
[3]; [15]
  EC50: 3 to 6 µg/mL (≈ 13.3 to 26.6 µM)
Recombinant 6-19; Recombinant 6-19
  Sensitivity (S) or Resistance (R): R
[5]
  solubility: 1300 to 1500 µg/mL (≈ 5770 to 6660 µM)
[6]; [11]
  minimal effective concentration: 1 to 3 µg/mL
[7]; HSV-1 wild type Strain 17
  Sensitivity (S) or Resistance (R): S
Recombinant 6-30; Recombinant 6-30
  Sensitivity (S) or Resistance (R): S
HSV-2; [16]
  Survivors/Total: 1/10
HSV-2; [17]
  Avg. Survival Days (confidence interval): 12.1 (8.8, 17.3) Days
  Survivors/Total: 3/10
HSV-2; [18]
  Avg. Survival Days (confidence interval): 12.4 (8.2, 20.7) Days
  Survivors/Total: 5/10
HSV-2; [19]
  Avg. Survival Days (confidence interval): 9.0 (7.1, 11.3) Days
  Survivors/Total: 1/10
HSV-2
  therapeutic effectiveness, treatment initiated up to 72 hours after infection: ineffective
HSV-2 TS6 [9]; HSV-2 TS6
  Sensitivity (S) or Resistance (R): S
HSV-2 TS6 [9]
  sensitivity of HSV-2 Ts6: sensitive
[10]; [20]
  EC50: 25 µg/mL (≈ 111 µM)
Recombinant 6-34; Recombinant 6-34
  Sensitivity (S) or Resistance (R): R
